Here are results for 23 molecules from ChEMBL document CHEMBL1201862, “PubChem BioAssay data set” (2004).

The structures appear in SMILES notation.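 Tested at 5 concentrations; 48 h exposure; 96-well plates; endpoints linearly interpolated, else capped at highest concentration. GI50 is the concentration that inhibits growth by half.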 The source made the active and inactive calls. Rule as the data show it: active = GI50 up to about 1.1 µM and inactive = higher. Some results are limits rather than exact numbers.

What all share (test): NCI tumour cell line growth inhibition, 48 h
Assay [1] relates to SNB-78.
For assay [2], the system named is KM-20L2.
In assay [3] the test system is HOP-18.
The test system of assay [4] is DLD-1.
Assay [5] deals with LXFL 529.
In assay [6] the test system is XF498.
Assay [7] deals with DMS-114.
Assay [8] relates to RXF 631.
Assay [9] concerns DMS-273.

`COc1ccc(/C=C2\CCc3ccccc3C2=O)cc1OC`: the GI50 in assay [1] was 33.7 µM (inactive); in assay [2], 30.8 µM (inactive); in assay [3] it was 33 µM (inactive); in assay [4], 21.9 µM (inactive); in [5], 25.7 µM (inactive); in assay [6], 17.7 µM (inactive). The GI50 in assay [7] was 17.1 µM (inactive).

In the case of `COc1ccc(SS(=O)(=O)c2ccc(OC)cc2)cc1`, the GI50 in assay [1] was 53.7 µM (inactive); in assay [2], 21.3 µM (inactive); in assay [3], 22.5 µM (inactive); in assay [4], 21.9 µM (inactive); in assay [5], 17.7 µM (inactive); in [8], 39 µM (inactive). For the same molecule, in [7], the GI50 is 16 µM (inactive).

As for `O=C(O)c1cc(Cl)cc(NC(=O)C(Cl)Cl)c1Cl`, the GI50 in assay [1], in assay [2], in assay [9], in [3], in assay [4] and in [5] was > 100 µM (inactive) each time. Also, the GI50 in assay [6], in assay [8] and in assay [7] was > 100 µM (inactive) throughout.

Consider `Cn1c(=O)n(C2(C)CSC2)c2ccccc21`, for which the GI50 in assay [2], in assay [9], in [4], in [5], in [6] and in assay [7] was > 100 µM (inactive) each time.

As to `CN(C)CCn1cnc2ncccc2c1=O`, the GI50 in assay [1], in assay [2], in [9], in assay [4], in assay [5] and in [6] was > 100 µM (inactive) each time. Further, in [7], the GI50 was 53.1 µM (inactive).

In the case of `CC(=O)Oc1ccc2c(c1)C(=O)c1nc(C)c(C)nc1C2=O`, the GI50 in [1] was 48.2 µM (inactive); in assay [2], 34 µM (inactive); in assay [9], > 73.8 µM (inactive); in [3] it was > 83.2 µM (inactive); in assay [4], 42.9 µM (inactive); in assay [5] it was > 51.8 µM (inactive). Further, the GI50 is 43.9 µM (inactive) in assay [6], 30.5 µM (inactive) in assay [8] and 34.8 µM (inactive) in assay [7].

Take `O=[N+]([O-])c1ccc(Cl)c(C2SCc3nc4ccccc4n32)c1` (centres undefined): the GI50 in assay [1] is 34.6 µM (inactive); in assay [9], 22.9 µM (inactive); in [3], 5.87 µM (inactive); in assay [4], 45.8 µM (inactive); in assay [5] it was 34.8 µM (inactive); in assay [7] it was 37 µM (inactive).

For the molecule `O=C(NC1CCCC1=O)c1ccccc1` (centres undefined), the GI50 in assay [1], in [2], in [9], in [4], in [6] and in [8] was > 100 µM (inactive) throughout. The GI50 in [7] was > 100 µM (inactive).

`CC(C)=CC(=O)Cc1nc2ccc([N+](=O)[O-])cc2[nH]c1=O`: the GI50 in assay [1] was > 100 µM (inactive); in [2], > 100 µM (inactive); in [9] it was > 100 µM (inactive); in assay [4], 72.1 µM (inactive); in assay [5] it was 53.7 µM (inactive); in assay [6], 41.3 µM (inactive). Also, the GI50 in assay [7] was 51.3 µM (inactive).

`Cc1ccc(N2C(=O)/C(=C/c3ccc(N(CCC#N)CCC#N)cc3C)N=C2c2cc([N+](=O)[O-])ccc2Cl)cc1`: the GI50 in assay [1], in assay [9], in assay [3], in [4], in assay [5] and in assay [8] was > 100 µM (inactive) each time. Further, the GI50 in assay [7] was 75.2 µM (inactive).

With `Brc1ccc(-c2cc3c(cc2C2SCCS2)OCO3)cc1`, the GI50 in assay [1] was 11.4 µM (inactive); in [2] it was 26.7 µM (inactive); in assay [9], 35.6 µM (inactive); in assay [3], 49.4 µM (inactive); in assay [4] it was 31.5 µM (inactive); in assay [5], 25.4 µM (inactive). Further, the GI50 in assay [6] is 14.2 µM (inactive); in [7] it was 23.2 µM (inactive).

As to `CC(C)(C)C1=CC(CCC(=O)Nc2ccccc2[N+](=O)[O-])=NC(S)N1` (centres undefined), the GI50 in assay [1], in assay [2], in [3], in assay [4], in assay [5] and in assay [8] was > 100 µM (inactive) each time. The GI50 in [7] is > 100 µM (inactive).

For the molecule `Cc1ccc(S(=O)(=O)N/N=C/CN2C(=O)c3ccccc3C2=O)cc1`, the GI50 in [2], in [9], in assay [4], in [5], in assay [6] and in [7] was > 100 µM (inactive) throughout.

As to `CN(Cc1cnc2nc(N)nc(N)c2n1)c1ccc(C(=O)N[C@@H](CCC(=O)O)C(=O)O)cc1` [METHOTREXATE], the GI50 in assay [1] is 117 µM (inactive); in [2] it was 0.044 µM (active); in assay [9] it was 0.0308 µM (active); in assay [3], 15.9 µM (inactive); in assay [4], 0.0356 µM (active); in assay [5] it was 0.0336 µM (active). Further, the figures for the GI50 in [6] and in [7] were 68.5 µM (inactive) and 0.0288 µM (active), respectively.

As to `CC(c1ccc2c(c1)CCC1C2CC2OC23CC=CC(=O)[C@]13C)C1C[C@]2(C)O[C@]2(C)[C@H](O)O1` (some centres undefined), the GI50 in assay [2] is 34.8 µM (inactive); in [9], 21.7 µM (inactive); in [5] it was 10.6 µM (inactive); in assay [6], 56.9 µM (inactive); in assay [7], 0.429 µM (active).

In the case of `O=C(CC1(O)C(=O)Nc2ccccc21)c1ccc(F)cc1` (centres undefined), the GI50 in assay [1], in [2], in assay [9], in [4], in [5] and in assay [6] was > 100 µM (inactive) each time. For the same molecule, the GI50 in assay [7] is > 100 µM (inactive).

As for `NC(=O)N=C(N(Cc1ccccc1)Cc1ccccc1)N(Cc1ccccc1)Cc1ccccc1`, the GI50 in assay [1] is 25.1 µM (inactive); in [2], 2.69 µM (inactive); in assay [9], 3.41 µM (inactive); in [4], 4.83 µM (inactive); in assay [5], 4.8 µM (inactive).

In the case of `CNC(=O)C1CCc2nnc(-c3ccccc3)n21` (centres undefined), the GI50 in [1], in assay [2], in assay [9], in [3], in assay [4] and in [5] was > 100 µM (inactive) throughout. Further, the GI50 in [8] and in assay [7] was > 100 µM (inactive) throughout.

With `Nc1ncn(C2C=C(CO)C(O)C2O)c(=O)n1` (centres undefined), the GI50 in [1] was > 100 µM (inactive); in assay [2], 66.1 µM (inactive); in [9], > 100 µM (inactive); in assay [3], > 100 µM (inactive); in assay [4], 63.5 µM (inactive); in assay [5] it was > 100 µM (inactive). For the same molecule, the GI50 in assay [8] is 47.6 µM (inactive).

Take `S=C1CNC(=S)CN1`: the GI50 in assay [1], in assay [2], in [9], in [3], in [4] and in assay [5] was > 100 µM (inactive) each time. Also, the GI50 in [8] and in assay [7] was > 100 µM (inactive) each time.

In the case of `CC(=O)Nc1ccc(/C=C/C(=O)c2sc(-c3nc(C)c(C(=O)/C=C/c4ccc(NC(C)=O)cc4)s3)nc2C)cc1`, the GI50 in assay [1], in [2], in assay [9], in assay [4], in assay [5] and in assay [6] was > 100 µM (inactive) throughout. Moreover, the GI50 in assay [8] and in assay [7] was > 100 µM (inactive) in each case.

For the molecule `O=C1NC(=O)C2C1C1C=C3c4ccccc4N(c4ccccc4)C32[C@H]2C(=O)NC(=O)[C@@H]12` (some centres undefined), the GI50 in assay [1], in assay [2], in [9], in assay [3], in assay [4] and in assay [5] was > 100 µM (inactive) each time. In assay [7], the GI50 is > 100 µM (inactive).

Consider `COc1cc(NS(C)(=O)=O)ccc1Nc1c2ccccc2nc2ccccc12` [AMSACRINE], for which the GI50 in assay [1] is 3.97 µM (inactive); in [2] it was 1.45 µM (inactive); in assay [9] it was 0.0659 µM (active); in assay [3], 0.7 µM (active); in assay [4], 2.79 µM (inactive); in [5], 3.32 µM (inactive). Besides, the GI50 in assay [8] was 0.509 µM (active); in assay [7], 0.184 µM (active).
